Test results published in patent US20150368617A1, “METHOD FOR FORMING ENDOTHELIAL CELLS” (Korea Advanced Institute of Science and Technology (KAIST), priority 2012, published 2015).

What was measured:
Format in all cases: cell-based, mouse
[1] = tested on: VYI-ECs; test: Scratch wound healing assay; details: addition of Y27632 10 μM to VEGF-A
Description: The purified VYI-ECs were plated on Matrigel-coated plates and incubated in differentiation medium until confluent. A single scratch wound was made on the cell-plated surface with a 200┌ l disposable pipette tip, and the medium was exchanged with a new medium containing either VEGF-A (50 ng/ml), Y27632 (10┌ M), or both. The wound was allowed to heal for 12 hrs. Phase contrast images were taken at 0, 3, 6, and 12 hrs. The average extent of wound closure was evaluated by measuring the wound area using ImageJ software.

[2] = tested on: ICAM2+ ECs; test: Cell cycle FACS analysis in ICAM2+ ECs; details: 12 hrs after plating
Description: FIGS. 15A-15D. ROCK suppression continuously promotes the expansion of ECs. ICAM2+ ECs were further incubated with PBS (Control), Y27632 (10┌ M), VEGF-A (50 ng/ml; VA) or Y27632 (10┌ M) plus VEGF-A (50 ng/ml) for 2 days, and analyses were performed at day 8.5. (FIG. 15A) Representative FACS analysis showing cell cycle in ICAM2+ ECs at 12 hrs. (FIG. 15B) % of ICAM2+ ECs under each phase of cell cycle at 12 hrs. Each group, n=3. *p<0.01 versus Control; ^#p<0.01 versus VEGF-A. (FIG. 15C) Representative FACS analysis of Annexin V+/PI− apoptotic ECs. (FIG. 15D) % of Annexin V+/PI− ECs. Each group, n=3. *p<0.01 versus Control.
(§1) Apoptosis assay was performed as previously described. To determine the cell cycle, BrdU/7-AAD cell cycle analysis was performed according to the manufacturer's instructions (BD Pharmingen™). Briefly, cells were incubated with BrdU (1 mM) for 1 hr, dissociated with dissociation buffer, and stained with anti-CD144 antibody. The cells were then fixed, permeabilized, and fixed once more, followed by 1 hr incubation with DNase I (200 U) at 37┌ C. After incubation with FITC-conjugated anti-BrdU antibody for 20 min at RT, the cells were stained with 7-AAD. The cells were analyzed by FACS Aria II and the data were analyzed using FlowJo software.

[3] = tested on: VYI-ECs; test: Matrigel tube forming assay; details: addition of Y27632 10 μM to VEGF-A
Description: The purified VYI-ECs (described in detail in the Results section) were plated on Matrigel-filled plates at a density of 2-4×10^4 cells/cm^2, and were incubated in differentiation medium containing VEGF-A (50 ng/ml) with or without Y27632 (10┌ M). After 12 hrs, the tube structures were observed using Axiovert 25 microscope (Carl Zeiss) and phase-contrast images were taken using DeltaPix infinity X digital camera and DpxView LE software (DeltaPix, Denmark).

[4] = tested on: CD144+ ECs; test: BrdU/7-AAD cell cycle analysis and BrdU incorporation in differentiating Flk1+ MPCs
Description: as §1

[5] = tested on: VYI-ECs; test: Angiogenesis assay using a microfluidic device; details: 72 hr; co-treatment of Y27632 with VEGF-A
Description: To test the angiogenic property of VYI-ECs, we utilized a microfluidic platform that was modified from the previously described device. Briefly, a poly-dimethylsiloxane (PDMS) based microfluidic platform containing three channels was fabricated with poly-dimethylsiloxane using a soft lithography process. Two empty spaces in between three parallel channels were filled with a mixture of type I collagen (3 mg/ml, rat tail, BD Biosciences) and fibronectin (50 μg/ml, Invitrogen), which together acted as an ECM scaffold. The center channel was coated with fibronectin (10 μg/ml), and was seeded with 40˜50 μl of VYI-EC suspension (1×10^7 cells/ml). The device was tilted vertically for 1 hr to allow the cells to attach onto the sidewall of the scaffold by gravity. The cells were then seeded onto the other sidewall by flipping the device upside down. Cell culture media in the side channels containing VEGF-A (50 ng/ml) or VEGF-A (50 ng/ml) plus Y27632 (10 μM) were exchanged with fresh media every 12 hr. Phase contrast and immunofluorescent images were acquired to analyze the angiogenic sprouting formation of VYI-ECs.

[6] = tested on: CD144+ ECs; test: FACS phenotypic analysis of EC and MC markers at day 6.5
Description: FIGS. 12A to 12B-6. ROCK suppression-induced ECs express EC-specific genes. (FIG. 12A) Diagram of cell preparations for phenotype analyses of EC and MC differentiation. Flk1+ MPCs were incubated with only VEGF-A (50 ng/ml) (Control) and VEGF-A (50 ng/ml) plus Y27632 (10┌ M) (Y72632) for 2 days. (FIG. 12B-1 to FIG. 12B-6) Representative FACS analysis for phenotypic markers in CD144+ cells; pan-endothelial, mural, and arterial-, venous- and lymphatic EC.
Cells were harvested with 0.25% trypsin-EDTA (Invitrogen) or dissociation buffer (Invitrogen) and resuspended in HBSS/2% FBS at 1×10^6 cells per 100┌ l. The cells were incubated for 20 min with the following antibodies: biotin-conjugated anti-mouse Flk1 (clone AVAS12a1, eBioscience), allophycocyanin (APC)-conjugated anti-mouse CD140a (clone APA5, eBioscience), phycoerythrin(PE)-conjugated anti-mouse CD31 (clone 390, eBioscience), Alexa Fluor® 647-conjugated anti-mouse CD144 (clone BV13, eBioscience), PE-conjugated anti-mouse D114 (clone HMD4-1, Biolegend), PE-conjugated anti-mouse Tie2 (clone TEK4, eBioscience), PE-conjugated anti-mouse Endoglin (clone MJ7/18, Biolegend), anti-mouse ICAM2 (clone 3C4, Biolegend), APC-conjugated anti-mouse CD140b (clone APBS, eBioscience), PE-conjugated anti-mouse LYVE1 (clone ALY7, eBioscience), anti-mouse VEGFR3 (goat polyclonal, R&D systems), anti-mouse EphB4 (clone VEB4-7E4, Hycult biotech), and PE-conjugated anti-mouse Notch1 (clone HMN1-12, Biolegend). After washing in HBSS/2% FBS twice, the cells were incubated with the following secondary antibodies: PE-conjugated streptavidin (eBioscience), PE-conjugated anti-rat IgG2a (eBioscience), and FITC-conjugated anti-goat IgG (Invitrogen). Dead cells were excluded by 7-aminoactinomycin D (7-AAD, Invitrogen).

## C[C@@H](N)[C@H]1CC[C@H](C(=O)Nc2ccncc2)CC1 [Y27632]
[1]
  increase of cell invasion into the wound region: 2.1 fold
[2]
  increase of percentage of cells in S phase compared to control: ~1.8 fold
[3]
  increase of formation of vascular networks: 1.7 fold
[4]; 12 hrs
  increase of BrdU+/CD144+ EC population: 1.7 fold
[4]; 36 hrs
  increase of BrdU+/CD144+ EC population: 2.7 fold
  increase of population of CD144+ ECs in S phase compared to control: 1.23 fold
  reduction of CD144+ ECs in G0/G1 phase compared to control: 12%
[5]
  increase of length of sprouting CD144+ VYI-ECs: 1.7 fold
[6]
  population of CD144+ ECs expressing pan-endothelial cell surface markers (Flk1, Tie2, endoglin and ICAM2) compared to control: ~2.0 fold
  population of CD144+ ECs that express D114 (arterial): 4.6 fold
  population of CD144+ ECs that express EphB4 (venous): 2.4 fold
  population of CD144+ ECs that express LYVE-1 (lymphatic): 2.1 fold
  population of CD144+ ECs that express Notch1 (arterial): 2.4 fold
  population of CD144+ ECs that express VEGFR3 (lymphatic): 3.8 fold
  populations of cells expressing αSMA and CD140b: markedly reduced
